# Like-named read-outs stand apart in the source and are kept apart here.
# How the values were obtained:
# Assay in all cases: Microdilution assay, MIC determination (CLSI M07-A9)
# Assay type in all cases: cell-based
# E. coli DSM1116 = settings: Escherichia coli
# Procedure: (§1) E. coli DSM 1116; E. coli BW25113; S. typhimurium TA100; Bacillus subtilis DSM10; M. phlei DSM750 and Micrococcus luteus DSM1790
# (§2) The tests were performed using the micro dilution method.
# (§3) The determination of MIC values was performed according to the ninth edition of the Approved Standard M07-A9 (CLSI. Methods for Dilution Antimicrobial Susceptibility Tests for Bacteria That Grow Aerobically; Approved Standard-Ninth Edition. CLSI document M07-A9. Wayne, Pa.: Clinical and Laboratory Standards Institute; 2012.)
# (§4) The test was carried out for the six different bacterial strains 20 μL of cryo stock of each strain were inoculated in 20 mL of LB media (Lysogeny broth: 10 g/L peptone, 5 g/L yeast extract, 5 g/L NaCl) followed by incubation over night at 37° C., 200 rpm. The test inoculum was adjusted by the 0.5 McFarland Standard (OD625 from 0.08 to 0.1). Within 15 min of preparation, the adjusted inoculum suspension was diluted in MHBII media (BBL™ Mueller-Hinton Broth II, Becton, Dickinson and Company, New Jersey/USA) so that each well contained approximately 5×10^5 CFU/mL in a final volume of 100 μL. 95 μL of the inoculum were applied per well and 5 μL of the (diluted) antibiotic substance were added.
# (§5) Previously the dry antibiotic compounds were dissolved in DMSO (100%) with a concentration of 2560 μg/mL and the resulting stock solutions were further diluted in DMSO (100%). 5 μL of each antibiotic dilution were applied to the microdilution tray to reach final concentrations of 64 μg/mL to 0.008 μg/mL. One row of each well plate was left as a growth control without antibiotic substances and another row of the microdilution tray was used as sterility control (only MHB II-media). The antimicrobial effect of the solvent (DMSO) was tested by adding 5 μL DMSO to several wells without antibiotics.
# (§6) Purity check and cell titer control were performed according to International Standard M07-A9 on Mueller-Hinton II Agar (Mueller Hinton II Broth, 15 g/L agar-agar).
# (§7) Both microdilution trays and agar plates were incubated at 37° C. for 20 h and subsequently analyzed visually.
# E. coli BW25113 = settings: Escherichia coli
# Procedure: as §1, §2, §3, §4, §5, §6, §7
# B. subtilis DSM10 = settings: Bacillus subtilis
# Procedure: as §1, §2, §3, §4, §5, §6, §7
# M. phlei DSM750 = settings: Mycolicibacterium phlei
# Procedure: as §1, §2, §3, §4, §5, §6, §7
# M. luteus DSM1790 = settings: Micrococcus luteus
# Procedure: as §1, §2, §3, §4, §5, §6, §7
# S. typhimurium TA100 = settings: Salmonella enterica, 20 h
# Procedure: as §1, §2, §3, §4, §5, §6, §7
# [1] = E. coli DSM1116, 37° C., 20 h, MHBII media, read-out: MIC
# [2] = E. coli BW25113, 37° C., 20 h, MHBII media, read-out: MIC
# [3] = B. subtilis DSM10, 37° C., 20 h, MHBII media, read-out: MIC
# [4] = M. phlei DSM750, 37° C., 20 h, MHBII media, read-out: MIC
# [5] = M. luteus DSM1790, 37° C., 20 h, MHBII media, read-out: MIC
# [6] = S. typhimurium TA100, 37° C., MHBII media, read-out: MIC
SMILES,"MIC (E. coli DSM1116; DSM1116, 20 h) [µg/mL]","MIC (E. coli BW25113; BW25113, 20 h) [µg/mL]","MIC (B. subtilis DSM10; DSM10, 20 h) [µg/mL]","MIC (M. phlei DSM750; DSM750, 20 h) [µg/mL]","MIC (M. luteus DSM1790; DSM1790, 20 h) [µg/mL]",MIC (S. typhimurium TA100; TYPHIMURIUM) [µg/mL],MIC (E. coli DSM1116; [1]) [µg/mL],MIC (E. coli BW25113; [2]) [µg/mL],MIC (B. subtilis DSM10; [3]) [µg/mL],MIC (M. phlei DSM750; [4]) [µg/mL],MIC (M. luteus DSM1790; [5]) [µg/mL],MIC (S. typhimurium TA100; [6]) [µg/mL]
COc1c(NC(=O)c2ccc(NC(=O)c3ccc(NC(=O)[C@H](CC#N)NC(=O)c4ccc(NC(=O)/C(C)=C/c5ccc(O)cc5)cc4)cc3)c(OC)c2O)ccc(C(=O)O)c1O [Albicidin],63,63,250,2000,1000,63,–,–,–,–,–,–
COc1c(NC(=O)c2ccc(NC(=O)c3ccc(NC(=O)C(Cc4cnn[nH]4)NC(=O)c4ccc(NC(=O)/C(C)=C/c5ccc(O)cc5)cn4)cc3)c(OC)c2O)ccc(C(=O)O)c1O (stereo not drawn) [Compound 1],16,16,250,2000,500,16,–,–,–,–,–,–
COc1c(NC(=O)c2ccc(NC(=O)c3ccc(NC(=O)C(Cc4cnn[nH]4)NC(=O)c4ccc(NC(=O)/C(C)=C/c5ccc(O)cc5)nc4)cc3)c(OC)c2O)ccc(C(=O)O)c1O (stereo not drawn) [Compound 2],–,–,–,–,–,–,31,16,500,2000,2000,16
COc1c(NC(=O)c2ccc(NC(=O)c3ccc(NC(=O)C(Cc4cnn[nH]4)NC(=O)c4ccc(NC(=O)/C(C)=C/c5ccc(O)cc5)nn4)cc3)c(OC)c2O)ccc(C(=O)O)c1O (stereo not drawn) [Compound 3],–,–,–,–,–,–,31,31,1000,2000,4000,31
COc1c(NC(=O)c2ccc(NC(=O)c3ccc(NC(=O)C(Cc4cnn[nH]4)NC(=O)c4ccc(NC(=O)/C(C)=C/c5ccc(O)cc5)cn4)cc3O)c(OC)c2O)ccc(C(=O)O)c1O (stereo not drawn) [Compound 4],–,–,–,–,–,–,31,31,1000,2000,2000,16
COc1c(NC(=O)c2ccc(NC(=O)c3ccc(NC(=O)C(Cc4cnn[nH]4)NC(=O)c4ccc(NC(=O)/C(C)=C/c5ccc(F)cc5)cn4)cc3O)c(OC)c2O)ccc(C(=O)O)c1O (stereo not drawn) [Compound 5],–,–,–,–,–,–,16,63,250,2000,2000,16
COc1nc(C(=O)Nc2ccc(C(=O)O)c(O)c2OC)ccc1NC(=O)c1ccc(NC(=O)C(Cc2cnn[nH]2)NC(=O)c2ccc(NC(=O)/C(C)=C/c3ccc(O)cc3)cc2)cc1 (stereo not drawn) [Compound 6],–,–,–,–,–,–,16,16,250,1000,125,31
COc1nc(C(=O)O)ccc1NC(=O)c1ccc(NC(=O)c2ccc(NC(=O)C(Cc3cnn[nH]3)NC(=O)c3ccc(NC(=O)/C(C)=C/c4ccc(O)cc4)cc3)cc2)c(OC)c1O (stereo not drawn) [Compound 7],–,–,–,–,–,–,250,500,2000,8000,> 8000,250
COc1c(NC(=O)c2ccc(NC(=O)C(Cc3cnn[nH]3)NC(=O)c3ccc(NC(=O)/C(C)=C/c4ccc(O)cc4)cn3)cc2)ccc(C(=O)Nc2ccc(C(=O)O)c(O)c2OCCO)c1O (stereo not drawn) [Compound 8],–,–,–,–,–,–,63,125,2000,2000,2000,31
COc1c(NC(=O)c2ccc(NC(=O)c3ccc(NC(=O)C(Cc4cnn[nH]4)NC(=O)c4ccc(NC(=O)c5ccc(F)cc5)cn4)cc3O)c(OC)c2O)ccc(C(=O)O)c1O (stereo not drawn) [Compound 9],–,–,–,–,–,–,63,125,1000,1000,> 8000,310
COc1c(NC(=O)c2ccc(NC(=O)c3ccc(NC(=O)C(Cc4cnn[nH]4)NC(=O)c4ccc(NC(=O)/C(C)=C/c5ccc(O)cc5)cc4)cn3)c(OC)c2O)ccc(C(=O)O)c1O (stereo not drawn) [Compound 10],–,–,–,–,–,–,≤ 16,≤ 16,63,250,31,≤ 16
COc1c(NC(=O)c2ccc(NC(=O)c3ccc(NC(=O)C(Cc4cnn[nH]4)NC(=O)c4ccc(NC(=O)/C(C)=C/c5ccc(O)cc5)cc4)nc3)c(OC)c2O)ccc(C(=O)O)c1O (stereo not drawn) [Compound 11],–,–,–,–,–,–,1000,500,500,8000,4000,4000
COc1c(NC(=O)c2ccc(NC(=O)c3ccc(NC(=O)C(Cc4cnn[nH]4)NC(=O)c4ccc(NC(=O)c5ccc(C#N)cc5)cc4)cn3)c(OC)c2O)ccc(C(=O)O)c1O (stereo not drawn) [Compound 12],–,–,–,–,–,–,31,31,250,8000,125,≤ 16
COc1c(NC(=O)c2ccc(NC(=O)c3ccc(NC(=O)C(Cc4cnn[nH]4)NC(=O)c4ccc(NC(=O)c5ccc(C#N)cc5)cn4)cn3)c(OC)c2O)ccc(C(=O)O)c1O (stereo not drawn) [Compound 13],–,–,–,–,–,–,31,31,125,1000,63,4000
COc1c(NC(=O)c2ccc(NC(=O)c3ccc(NC(=O)C(Cc4cnn[nH]4)NC(=O)c4ccc(NC(=O)/C(C)=C/c5ccc(O)cc5)cn4)cn3)c(OC)c2O)ccc(C(=O)O)c1O (stereo not drawn) [Compound 14],–,–,–,–,–,–,≤ 16,63,125,4000,125,≤ 16
C/C(=C\c1ccc(O)cc1)C(=O)Nc1ccc(C(=O)N[C@@H](Cc2c[nH]nn2)C(=O)Nc2ccc(C(=O)Nc3ccc(C(=O)Nc4ccc(C(=O)O)cc4)c(O)c3OC(C)C)nc2)cc1 [Compound 15],–,–,–,–,–,–,31,31,≤ 16,250,63,≤ 16
C/C(=C\c1ccc(O)cc1)C(=O)Nc1ccc(C(=O)N[C@@H](Cc2c[nH]nn2)C(=O)Nc2ccc(C(=O)Nc3ccc(C(=O)Nc4ccc(C(=O)O)cc4)c(O)c3OC(C)C)nc2)nc1 [Compound 16],–,–,–,–,–,–,31,≤ 16,≤ 16,31,≤ 16,≤ 16
